Laboratory results reported in the supplement of paper PMC10307832.

What was measured:
Test in all cases: relative viability (nuclei count vs DMSO), 5 days (fraction); higher = more cells survive
NCI-H1563 = test system: NCI-H1563
Outline: (§1)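 Medians of duplicate plates are given as relative viability. That measure is the nuclei count in treated wells divided by the count in vehicle wells. Counts were taken on 4× images of lung cancer cell lines in 1536-well plates, 5 days after pin-tool dosing the day after seeding with one drug alone or a fixed anchor-drug dose plus five library-drug doses (not always all listed) in √10 steps.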

NCI-H1666 = test system: NCI-H1666
Outline: as §1

NCI-H1975 = test system: NCI-H1975
Outline: as §1

NCI-H2126 = test system: NCI-H2126
Outline: as §1

NCI-H23 = test system: NCI-H23
Outline: as §1

NCI-H2405 = test system: NCI-H2405
Outline: as §1

NCI-H322M = test system: NCI-H322M
Outline: as §1

PC-14 = test system: PC-14
Outline: as §1

RERF-LC-KJ = test system: RERF-LC-KJ
Outline: as §1

SK-LU-1 = test system: SK-LU-1
Outline: as §1

SW 1573 = test system: SW 1573
Outline: as §1

CCN(CC)CCCCNc1ncc2cc(-c3cc(OC)cc(OC)c3)c(NC(=O)NC(C)(C)C)nc2n1 + C[C@@H](Oc1cc(-c2cnn(C3CCNCC3)c2)cnc1N)c1c(Cl)ccc(F)c1Cl [Crizotinib] (partner 1 µM)
relative viability (NCI-H1563; first compound 0.3162 µM): 0.833
relative viability (NCI-H1563; first compound 1 µM): 0.623
relative viability (NCI-H1666; first compound 0.01 µM): 1.17
relative viability (NCI-H1666; first compound 0.03162 µM): 0.985
relative viability (NCI-H1666; first compound 0.1 µM): 0.895
relative viability (NCI-H1666; first compound 0.3162 µM): 1.02
relative viability (NCI-H1666; first compound 1 µM): 1.09
relative viability (NCI-H1975; first compound 0.01 µM): 1.35
relative viability (NCI-H1975; first compound 0.03162 µM): 1.02
relative viability (NCI-H1975; first compound 0.1 µM): 1.05
relative viability (NCI-H1975; first compound 0.3162 µM): 0.94
relative viability (NCI-H1975; first compound 1 µM): 0.82
relative viability (NCI-H2126; first compound 0.01 µM): 1.08
relative viability (NCI-H2126; first compound 0.03162 µM): 0.992
relative viability (NCI-H2126; first compound 0.1 µM): 1.06
relative viability (NCI-H2126; first compound 0.3162 µM): 1.08
relative viability (NCI-H2126; first compound 1 µM): 1.04
relative viability (NCI-H23; first compound 0.01 µM): 0.537
relative viability (NCI-H23; first compound 0.03162 µM): 0.568
relative viability (NCI-H23; first compound 0.1 µM): 0.496
relative viability (NCI-H23; first compound 0.3162 µM): 0.536
relative viability (NCI-H23; first compound 1 µM): 0.511
relative viability (NCI-H2405; first compound 0.01 µM): 0.834
relative viability (NCI-H2405; first compound 0.03162 µM): 0.868
relative viability (NCI-H2405; first compound 0.1 µM): 0.893
relative viability (NCI-H2405; first compound 0.3162 µM): 0.873
relative viability (NCI-H2405; first compound 1 µM): 0.8
relative viability (NCI-H322M; first compound 0.01 µM): 0.977
relative viability (NCI-H322M; first compound 0.03162 µM): 0.912
relative viability (NCI-H322M; first compound 0.1 µM): 0.928
relative viability (NCI-H322M; first compound 0.3162 µM): 1.06
relative viability (NCI-H322M; first compound 1 µM): 0.935
relative viability (PC-14; first compound 0.01 µM): 0.916
relative viability (PC-14; first compound 0.03162 µM): 0.875
relative viability (PC-14; first compound 0.1 µM): 1.02
relative viability (PC-14; first compound 0.3162 µM): 1.06
relative viability (PC-14; first compound 1 µM): 0.904
relative viability (RERF-LC-KJ; first compound 0.01 µM): 0.84
relative viability (RERF-LC-KJ; first compound 0.03162 µM): 0.818
relative viability (RERF-LC-KJ; first compound 0.1 µM): 1.13
relative viability (RERF-LC-KJ; first compound 0.3162 µM): 0.916
relative viability (RERF-LC-KJ; first compound 1 µM): 0.816
relative viability (SK-LU-1; first compound 0.01 µM): 0.908
relative viability (SK-LU-1; first compound 0.03162 µM): 1.02
relative viability (SK-LU-1; first compound 0.1 µM): 0.901
relative viability (SK-LU-1; first compound 0.3162 µM): 1
relative viability (SK-LU-1; first compound 1 µM): 0.641
relative viability (SW 1573; first compound 0.01 µM): 0.69
relative viability (SW 1573; first compound 0.03162 µM): 0.813
relative viability (SW 1573; first compound 0.1 µM): 1.05
relative viability (SW 1573; first compound 0.3162 µM): 0.774
relative viability (SW 1573; first compound 1 µM): 0.722
